Data as given in ChEMBL document CHEMBL3792274, “Neuroprotective oleanane triterpenes from the roots of Bupleurum chinense” (Bioorg Med Chem Lett, 2016).

Tests used:
SH-SY5Y [1] = assay: Neuroprotective activity against H2O2-induced neuronal cell death in human SH-SY5Y cells assessed as cell viability at 50 uM pretreated for 12 hrs followed by H2O2 addition measured after 3 hrs by MTT assay relative to control; type: functional; conditions: read-out: Activity
Bcap37 = assay: Cytotoxicity against human Bcap37 cells after 48 hrs by MTT assay; type: cell-based; conditions: Bcap37, 48 h
HepG2 = assay: Cytotoxicity against human HepG2 cells after 48 hrs by MTT assay; type: cell-based; conditions: HepG2, 48 h
MCF7 = assay: Cytotoxicity against human MCF7 cells after 48 hrs by MTT assay; type: cell-based; conditions: MCF7, 48 h
SH-SY5Y [2] = assay: Neuroprotective activity against H2O2-induced neuronal cell death in human SH-SY5Y cells assessed as cell viability at 100 uM pretreated for 12 hrs followed by H2O2 addition measured after 3 hrs by MTT assay relative to control; type: functional; conditions: read-out: Activity
A549 = assay: Cytotoxicity against human A549 cells after 48 hrs by MTT assay; type: cell-based; conditions: A549, 48 h
[3] = Cytotoxicity against human Hep3B cells after 48 hrs by MTT assay; type: cell-based, Hep 3B2
SH-SY5Y [4] = assay: Neuroprotective activity against H2O2-induced neuronal cell death in human SH-SY5Y cells assessed as cell viability at 25 uM pretreated for 12 hrs followed by H2O2 addition measured after 3 hrs by MTT assay relative to control; type: functional; conditions: read-out: Activity

Row | SMILES | viability at 50 µM (SH-SY5Y [1]) [%] | IC50 (Bcap37) [µM] | IC50 (HepG2) [µM] | IC50 (MCF7) [µM] | viability at 100 µM (SH-SY5Y [2]) [%] | IC50 (A549) [µM] | IC50 [3] [µM] | viability at 25 µM (SH-SY5Y [4]) [%]
1 | CO[C@H]1C=C2[C@H]3CC(C)(C)CC[C@@]3(CO)[C@H](O)C[C@]2(C)[C@@]2(C)CC[C@@H]3C(C)(C)[C@H](O[C@@H]4O[C@H](CO[C@H]5O[C@@H](CO)[C@H](O)[C@@H](O)[C@@H]5O)[C@@H](O[C@@H]5O[C@@H](C)[C@H](O)[C@@H](O)[C@H]5O)[C@H](O)[C@H]4O)CC[C@@]3(C)[C@H]12 | 50 | > 80 | > 80 | > 80 | 20.2 | > 80 | 75.7 | 58.4
2 | C[C@H]1O[C@@H](O[C@H]2CC[C@@]3(C)[C@@H](CC[C@]4(C)[C@@H]3[C@H](O)C=C3[C@@H]5CC(C)(C)CC[C@]5(CO)[C@@H](O)C[C@]34C)[C@]2(C)CO)[C@H](O)[C@@H](O[C@@H]2O[C@H](CO)[C@@H](O)[C@H](O)[C@H]2O)[C@H]1O | 54.4 | > 80 | > 80 | > 80 | 55.6 | > 80 | > 80 | 57.5
3 | CC1(C)CC[C@]2(CO)C(=O)C[C@]3(C)C(=C2C1)C=C[C@@H]1[C@@]2(C)CC[C@H](O)[C@@](C)(CO)[C@@H]2CC[C@]13C | 80.6 | > 80 | > 80 | > 80 | 77.8 | > 80 | > 80 | 78.2
4 | CC(=O)OC[C@H]1O[C@@H](O[C@H]2[C@@H](O)[C@@H](C)O[C@@H](O[C@H]3CC[C@@]4(C)[C@@H](CC[C@]5(C)[C@@H]4C=CC4=C6CC(C)(C)CC[C@]6(CO)[C@H](O)C[C@]45C)[C@]3(C)CO)[C@@H]2O)[C@H](O)[C@@H](O)[C@@H]1O | 7.24 | > 80 | 21.8 | 46.5 | 7.64 | 69.3 | > 80 | 14.3
5 | CO[C@@H]1C=C2[C@@H]3CC(C)(C)CC[C@]3(CO)[C@H](O)C[C@@]2(C)[C@]2(C)CC[C@H]3[C@](C)(CO)[C@@H](O[C@@H]4O[C@H](C)[C@H](O)[C@H](O[C@@H]5O[C@H](COC(C)=O)[C@@H](O)[C@H](O)[C@H]5O)[C@H]4O)CC[C@]3(C)[C@@H]12 | 7.12 |  |  |  | 7.16 |  |  | 11.7
6 | CO[C@@H]1C=C2[C@@H]3CC(C)(C)C[C@H](O)[C@]3(CO)[C@@H](O)C[C@@]2(C)[C@]2(C)CC[C@@H]3[C@](C)(CCC(=O)[C@@]3(C)CO)[C@@H]12 | 70.2 | > 80 | 65.9 | > 80 | 67.2 | > 80 | > 80 | 75.6
7 | CC(=O)O[C@H]1[C@H](O[C@H]2[C@@H](O)[C@@H](C)O[C@@H](O[C@H]3CC[C@@]4(C)[C@@H](CC[C@]5(C)[C@@H]4C=CC4=C6CC(C)(C)CC[C@]6(CO)[C@H](O)C[C@]45C)[C@]3(C)CO)[C@@H]2O)O[C@H](CO)[C@@H](O)[C@@H]1O | 7.28 | 23.5 | 18.9 | 42.2 | 7.36 | 56 | 23 | 9.38
8 | CC1(C)CC[C@]23CO[C@@]4(C=C[C@@H]5[C@@]6(C)CC[C@H](O)[C@@](C)(CO)[C@@H]6CC[C@@]5(C)[C@]4(C)C[C@H]2O)[C@@H]3C1 | 62.4 | > 80 | 63.4 | > 80 | 62.6 | > 80 | > 80 | 70
9 | Cc1c(C)c2c(c(C)c1O)CCC(C)(C(=O)O)O2 (stereo not drawn) [TROLOX] | 73.7 |  |  |  | 75.2 |  |  | 67
10 | C[C@H]1O[C@@H](O[C@H]2CC[C@@]3(C)[C@@H](CC[C@]4(C)[C@@H]3[C@H](O)C=C3[C@@H]5CC(C)(C)CC[C@]5(CO)[C@@H](O)C[C@]34C)[C@]2(C)CO)[C@H](O)[C@@H](O)[C@H]1O | 11.4 | 20.2 | 19.4 | 29.4 | 6.3 | 58.1 | 39.6 | 67.6
11 | C[C@H]1O[C@@H](O[C@H]2CC[C@@]3(C)[C@@H](CC[C@]4(C)[C@@H]3C=CC3=C5CC(C)(C)CC[C@]5(CO)[C@H](O)C[C@]34C)[C@]2(C)CO)[C@H](O)[C@@H](O[C@@H]2O[C@H](CO)[C@@H](O)[C@H](O)[C@H]2O)[C@H]1O | 59.5 | > 80 | 35.1 | > 80 | 33.3 | > 80 | > 80 | 66.9
12 | CC1(C)CC[C@@]2(CO)C(=C3C=C[C@@H]4[C@@]5(C)CC[C@H](O)[C@@](C)(CO)[C@@H]5CC[C@@]4(C)[C@]3(C)C[C@H]2O)C1 | 82.5 | > 80 | > 80 | > 80 | 79.3 | > 80 | > 80 | 83.4
13 | CC1(C)CC[C@@]2(CO)C(=C3C=C[C@@H]4[C@@]5(C)CC[C@H](O)[C@@](C)(CO)[C@@H]5CC[C@@]4(C)[C@]3(C)C[C@@H]2O)C1 | 79.9 | > 80 | > 80 | > 80 | 78 | > 80 | > 80 | 81.4
14 | CO[C@@H]1C=C2[C@@H]3CC(C)(C)CC[C@]3(CO)[C@@H](O)C[C@@]2(C)[C@]2(C)CC[C@H]3C(C)(C)[C@@H](O[C@@H]4O[C@H](C)[C@H](O)[C@H](O[C@@H]5O[C@H](CO)[C@@H](O)[C@H](O)[C@H]5O)[C@H]4O)CC[C@]3(C)[C@@H]12 | 7.15 | > 80 | 43.2 | > 80 | 6.02 | > 80 | > 80 | 64.9
15 | C[C@@H]1O[C@@H](O[C@H]2[C@H](O)[C@@H](O)[C@H](O[C@@H]3CC[C@]4(C)[C@H](CC[C@@]5(C)[C@H]4CC=C4[C@H]6CC(C)(C)CC[C@@]6(CO)[C@H](O)C[C@@]45C)C3(C)C)O[C@@H]2CO[C@H]2O[C@@H](CO)[C@H](O)[C@@H](O)[C@@H]2O)[C@H](O)[C@H](O)[C@H]1O | 53 | > 80 | > 80 | > 80 | 8.66 | > 80 | 37.8 | 51.4
16 | CC1(C)CC[C@]23CO[C@@]4(C=C[C@@H]5[C@@]6(C)CC[C@H](O)[C@@](C)(CO)[C@@H]6CC[C@@]5(C)[C@]4(C)C[C@@H]2O)[C@@H]3C1 | 74.2 | > 80 | 75.7 | > 80 | 43.5 | > 80 | > 80 | 66.7
17 | CC1(C)CC[C@@]2(CO)C(=C3C=C[C@@H]4[C@@]5(C)CCC(=O)[C@@](C)(CO)[C@@H]5CC[C@@]4(C)[C@]3(C)C[C@H]2O)C1 | 74.1 | > 80 | > 80 | > 80 | 75.1 | > 80 | > 80 | 77.2
18 | CO[C@@H]1C=C2[C@@H]3CC(C)(C)CC[C@]3(CO)[C@@H](O)C[C@@]2(C)[C@]2(C)CC[C@H]3[C@](C)(CO)[C@@H](O[C@@H]4O[C@H](C)[C@H](O)[C@H](O[C@@H]5O[C@H](CO)[C@@H](O)[C@H](O)[C@H]5O)[C@H]4O)CC[C@]3(C)[C@@H]12 | 8.25 | > 80 | 27.5 | 64.3 | 6.16 | > 80 | > 80 | 63.1
19 | O=c1[nH]cc(F)c(=O)[nH]1 [FLUOROURACIL] |  | 47.1 | 49.7 | 42.8 |  |  | 10.5 | 
